In series [1] the target is T1, Amine oxidase [flavin-containing] A (Homo sapiens, UniProt P21397).
T1 sequence (P21397 whole entry): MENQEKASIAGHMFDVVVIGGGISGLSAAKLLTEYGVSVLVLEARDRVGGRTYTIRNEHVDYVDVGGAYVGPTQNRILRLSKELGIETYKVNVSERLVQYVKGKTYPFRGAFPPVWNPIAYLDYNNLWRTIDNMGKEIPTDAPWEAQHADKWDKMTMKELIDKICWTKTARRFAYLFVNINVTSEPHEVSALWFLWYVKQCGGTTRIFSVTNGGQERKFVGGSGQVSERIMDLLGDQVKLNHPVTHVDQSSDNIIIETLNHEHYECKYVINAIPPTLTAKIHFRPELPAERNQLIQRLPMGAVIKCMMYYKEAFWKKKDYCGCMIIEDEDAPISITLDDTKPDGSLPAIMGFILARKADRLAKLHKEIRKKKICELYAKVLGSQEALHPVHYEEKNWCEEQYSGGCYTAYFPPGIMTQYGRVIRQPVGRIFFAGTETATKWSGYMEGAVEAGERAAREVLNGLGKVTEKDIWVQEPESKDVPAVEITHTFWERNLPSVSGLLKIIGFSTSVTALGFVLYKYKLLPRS

The target of series [2] is T2, Amine oxidase [flavin-containing] B (Homo sapiens, UniProt P27338).
T2 sequence (P27338 whole entry): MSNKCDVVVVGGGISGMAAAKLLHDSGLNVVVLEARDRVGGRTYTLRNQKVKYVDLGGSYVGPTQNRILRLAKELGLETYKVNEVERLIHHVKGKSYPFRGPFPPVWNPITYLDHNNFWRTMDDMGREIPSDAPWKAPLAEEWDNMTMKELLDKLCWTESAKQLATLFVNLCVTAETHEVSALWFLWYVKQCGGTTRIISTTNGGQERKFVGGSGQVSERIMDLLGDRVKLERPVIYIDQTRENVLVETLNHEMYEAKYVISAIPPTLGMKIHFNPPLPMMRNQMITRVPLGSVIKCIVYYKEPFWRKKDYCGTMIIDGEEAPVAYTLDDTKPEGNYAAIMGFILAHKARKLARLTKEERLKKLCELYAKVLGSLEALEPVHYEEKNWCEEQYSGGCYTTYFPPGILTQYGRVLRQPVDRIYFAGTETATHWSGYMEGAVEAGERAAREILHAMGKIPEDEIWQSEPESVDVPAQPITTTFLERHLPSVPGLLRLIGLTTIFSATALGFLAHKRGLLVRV

In series [3] the target is T1, Amine oxidase [flavin-containing] A. In words: Reversible inhibition of human recombinant MAO-A using kynuramine substrate assessed as enzyme activity recovered at 4 times of IC50 concentration incubated for 15 mins and subsequently dialyzed for 24 hrs relative to control in presence of pargyline. To be noted: 0.25 h. More on the design: scale not given: the % may be the effect or the level left.

Series [4] has as its target T2, Amine oxidase [flavin-containing] B. In words: Reversible inhibition of human recombinant MAO-B using kynuramine substrate assessed as enzyme activity recovered at 4 times of IC50 concentration incubated for 15 mins relative to control. More on the design: scale not given: the % may be the effect or the level left. To be noted: 0.25 h.
In series [5] the target is T1, Amine oxidase [flavin-containing] A. Kind of series: Inhibition of human recombinant MAO-A assessed as kynuramine substrate by Lineweaver-Burk plot analysis.
For series [6] the target is unchanged. Kind of series: Reversible inhibition of human recombinant MAO-A using kynuramine substrate assessed as enzyme activity recovered at 4 times of IC50 concentration incubated for 15 mins relative to control. To be noted: 0.25 h. Set-up: scale not given: the % may be the effect or the level left.
The target is the same in series [7]. In words: Reversible inhibition of human recombinant MAO-A using kynuramine substrate assessed as enzyme activity recovered at 4 times of IC50 concentration incubated for 15 mins and subsequently dialyzed for 24 hrs relative to control. To be noted: 0.25 h. Set-up: scale not given: the % may be the effect or the level left.
For series [8], the target named is T2, Amine oxidase [flavin-containing] B. In words: Inhibition of human recombinant MAO-B assessed as kynuramine substrate by Lineweaver-Burk plot analysis.
The target is the same in series [9]. In words: Reversible inhibition of human recombinant MAO-B using kynuramine substrate assessed as enzyme activity recovered at 4 times of IC50 concentration incubated for 15 mins and subsequently dialyzed for 24 hrs relative to control in presence of (R)-deprenyl. More on the design: scale not given: the % may be the effect or the level left. To be noted: 0.25 h.

Series [10] shares this target. In words: Reversible inhibition of human recombinant MAO-B using kynuramine substrate assessed as enzyme activity recovered at 4 times of IC50 concentration incubated for 15 mins and subsequently dialyzed for 24 hrs relative to control. More on the design: scale not given: the % may be the effect or the level left. To be noted: 0.25 h.

Structures are written as SMILES.

The term IC50 denotes the concentration needed to halve the response being measured. `N#Cc1ccc(OCc2ccc(Br)cc2)cc1C#N` yielded a 50% inhibitory concentration (IC50) in series [1] of 0.0066 µM.
In the case of `Cn1c(-c2cccs2)c(Cl)c2cc(C#N)c(C#N)cc21`, the results for the half-maximal inhibitory concentration (IC50) in [1] and in series [2] were 0.035 µM and greater than 100 µM, respectively.
As for `Cn1c(-c2ccccc2)c(Cl)c2cc(C#N)c(C#N)cc21`, the results for the IC50 in [1] and in [2] were 0.142 µM and greater than 100 µM, respectively.
On the same counts, the results for `COc1ccc(-c2[nH]c3cc(C#N)c(C#N)cc3c2Cl)cc1` are 0.004 µM and 0.02 µM.
For `N#Cc1cc2c(Br)c(-c3ccccc3)n(O)c2cc1C#N`, in that order: 3.48 µM and 11.9 µM.
As a reminder, the Ki is a measure of affinity in units of concentration, obtained from inhibition or displacement. Take `Cc1ccc(-c2[nH]c3cc(C#N)c(C#N)cc3c2Cl)cc1`: the Activity in series [3] is recorded as 1.6%; in series [4] it was 37%; in [6] it was 43%; in series [7] it was 77%; in series [9], 3.1%; in [10], 78%. Besides, the values for the Ki in [5] and in series [8] were 0.018 µM and 0.016 µM, respectively. Further, the 50% inhibitory concentration (IC50) in [1] came to 0.014 µM; in series [2], 0.017 µM.
On to `Cc1ccc(-c2c(Br)c3cc(C#N)c(C#N)cc3n2O)cc1`, for which the results for the IC50 in series [1] and in series [2] were 2.19 µM and 2.86 µM, respectively.
On the same counts, the results for `COc1ccc(-c2c(Br)c3cc(C#N)c(C#N)cc3n2OC)cc1` are greater than 100 µM and greater than 100 µM.
For `COc1ccc(-c2c(Br)c3cc(C#N)c(C#N)cc3n2O)cc1`, the IC50 is 0.726 µM in [1] and 1.52 µM in [2].
As for `Cc1ccc(-c2c(Cl)c3cc(C#N)c(C#N)cc3n2C)cc1`, the figures for the IC50 in [1] and in [2] were 19.4 µM and greater than 100 µM, respectively.
On to `N#Cc1cc2[nH]c(-c3cccs3)c(Cl)c2cc1C#N`, for which the IC50 in [1] came to 0.118 µM; in [2], 1.27 µM.
For `N#Cc1cc2[nH]c(-c3ccccc3)c(Cl)c2cc1C#N`, in that order: 0.121 µM and 0.144 µM.
Take `COc1ccc(-c2c(Cl)c3cc(C#N)c(C#N)cc3n2C)cc1`: the half-maximal inhibitory concentration (IC50) in series [1] is 0.129 µM; in series [2], greater than 100 µM.
In the case of `N#Cc1ccc(OC/C=C/c2ccccc2)cc1C#N`, the half-inhibitory concentration (IC50) in series [2] was 0.642 µM.

(Values after ChEMBL document CHEMBL3396993, “Inhibition of monoamine oxidase by indole-5,6-dicarbonitrile derivatives” (Bioorg Med Chem Lett, 2015).)
